PubChem BioAssay AID248 (DTP/NCI, 2004)
“And” between values parts separate entries of the source, which are not always exact repeats. Equal entries are not always repeated. Toxic doses and inconclusive results are not listed. Cut-off read from the data, not from the text of the source: active = T/C of 150% or more; inactive = T/C below 125%.

System: L1210 leukemia ip in BDF1 mice, survival T/C
Test: NCI In Vivo Anticancer Drug Screen. Data for tumor model L1210 Leukemia (intraperitoneal) in B6D2F1 (BDF1) mice
Conditions: endpoint: mean survival time, higher = longer survival
Method in brief: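 Each compound was tested against a transplantable tumor grown in mice. The endpoint was survival, with treated animals benchmarked against vehicle controls as a simple ratio.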

[1] = dose: 50.0 mg/kg/injection, schedule: Q01DX001 (ip), vehicle: saline
[2] = dose: 100.0 mg/kg/injection, schedule: Q01DX001 (ip), vehicle: saline
[3] = dose: 200.0 mg/kg/injection, schedule: Q01DX001 (ip), vehicle: saline
[4] = dose: 400.0 mg/kg/injection, schedule: Q01DX001 (ip), vehicle: saline
[5] = dose: 100.0 mg/kg/injection, schedule: Q01DX001 (ip), vehicle: carboxymethylcellulose (CMC)
[6] = dose: 200.0 mg/kg/injection, schedule: Q01DX001 (ip), vehicle: carboxymethylcellulose (CMC)
[7] = dose: 100.0 mg/kg/injection, schedule: Q04DX003 (ip), vehicle: saline with Tween-80
[8] = dose: 200.0 mg/kg/injection, schedule: Q04DX003 (ip), vehicle: saline with Tween-80
[9] = dose: 50.0 mg/kg/injection, schedule: Q01DX009 (ip), vehicle: saline with Tween-80
[10] = dose: 100.0 mg/kg/injection, schedule: Q01DX009 (ip), vehicle: saline with Tween-80
[11] = dose: 200.0 mg/kg/injection, schedule: Q01DX009 (ip), vehicle: saline with Tween-80
[12] = dose: 400.0 mg/kg/injection, schedule: Q01DX009 (ip), vehicle: saline with Tween-80
[13] = dose: 100.0 mg/kg/injection, schedule: Q01DX009 (ip), vehicle: Klucel (hydroxypropylcellulose) (HPC)
[14] = dose: 200.0 mg/kg/injection, schedule: Q01DX009 (ip), vehicle: Klucel (hydroxypropylcellulose) (HPC)
[15] = dose: 400.0 mg/kg/injection, schedule: Q01DX009 (ip), vehicle: Klucel (hydroxypropylcellulose) (HPC)
[16] = dose: 100.0 mg/kg/injection, schedule: Q04DX003 (ip), vehicle: Klucel (hydroxypropylcellulose) (HPC)
[17] = dose: 200.0 mg/kg/injection, schedule: Q04DX003 (ip), vehicle: Klucel (hydroxypropylcellulose) (HPC)
[18] = dose: 400.0 mg/kg/injection, schedule: Q04DX003 (ip), vehicle: Klucel (hydroxypropylcellulose) (HPC)
[19] = dose: 50.0 mg/kg/injection, schedule: Q01DX001 (ip), vehicle: carboxymethylcellulose (CMC)

Measured: T/C

CCN(CC)CCOC(=O)C(c1ccccc1)C1CCCCC1 (stereo not drawn)
inactive: dose: 6.25 mg/kg/injection, schedule: Q01DX009 (ip), vehicle: saline 105 % of control | dose: 12.5 mg/kg/injection, schedule: Q01DX009 (ip), vehicle: saline 95 % of control | dose: 25.0 mg/kg/injection, schedule: Q01DX009 (ip), vehicle: saline 95 % of control | dose: 50.0 mg/kg/injection, schedule: Q01DX009 (ip), vehicle: saline 103 % of control | dose: 100.0 mg/kg/injection, schedule: Q01DX009 (ip), vehicle: saline 103 % of control

O=C(CCCC(=O)N/N=C/c1ccc(Cl)c(Cl)c1)N/N=C\c1ccc(Cl)c(Cl)c1
inactive: [1] 116 % of control | [2] 110 % of control | [3] 118 % of control | [4] 100 % of control

S=C(NP(=S)(NC(=S)OCCN1CC1)NC(=S)OCCN1CC1)OCCN1CC1
inactive: [5] 93 % of control | [6] 96 % of control

O=C(O)CCC(=O)CC1CCCCC1
inactive: [7] 101 % of control | [8] 87 % of control

CCCCCCCC/C=C\CCCCCCCCNC(C)=O
inactive: [7] 101 % of control | [8] 103 % of control | dose: 400.0 mg/kg/injection, schedule: Q04DX003 (ip), vehicle: saline with Tween-80 98 % of control

CCCCCCCN=C(N)CSSCC(N)=NCCCCCCC
inactive: dose: 1.56 mg/kg/injection, schedule: Q04DX002 (ip), vehicle: saline with Tween-80 101 % of control | dose: 3.13 mg/kg/injection, schedule: Q04DX002 (ip), vehicle: saline with Tween-80 96 % of control | dose: 6.25 mg/kg/injection, schedule: Q04DX002 (ip), vehicle: saline with Tween-80 108 % of control and 115 % of control

CC(=O)C(C(C)=O)C(c1ccc2c(c1)OCO2)C(C(C)=O)C(C)=O
inactive: dose: 12.5 mg/kg/injection, schedule: Q01DX009 (ip), vehicle: saline with Tween-80 93 % of control | dose: 25.0 mg/kg/injection, schedule: Q01DX009 (ip), vehicle: saline with Tween-80 92 % of control | [9] 93 % of control and 92 % of control | [7] 86 % of control

C=CC1CN(CCc2cc3ccccc3[nH]2)CCC1CC(=O)OCC (stereo not drawn)
inactive: [10] 91 % of control | [11] 96 % of control | [12] 97 % of control

O=[N+]([O-])c1ccc(O)c(C=Nc2cnc3ccccc3c2)c1
inactive: [5] 88 % of control | [6] 93 % of control | dose: 400.0 mg/kg/injection, schedule: Q01DX001 (ip), vehicle: carboxymethylcellulose (CMC) 90 % of control

O=C(Nc1ccccc1)OCC#CCOC(=O)Nc1ccccc1
inactive: [13] 97 % of control | [14] 90 % of control | [15] 100 % of control

CC(=O)Oc1c(C)c(Br)c(OC(C)=O)c(-c2c(C)cc(C)c(Br)c2C)c1Br
inactive: dose: 100.0 mg/kg/injection, schedule: Q01DX001 (ip), vehicle: Klucel (hydroxypropylcellulose) (HPC) 87 % of control | [16] 100 % of control | dose: 200.0 mg/kg/injection, schedule: Q01DX001 (ip), vehicle: Klucel (hydroxypropylcellulose) (HPC) 95 % of control | [17] 95 % of control | dose: 400.0 mg/kg/injection, schedule: Q01DX001 (ip), vehicle: Klucel (hydroxypropylcellulose) (HPC) 95 % of control | [18] 101 % of control

CCn1ccc2c(N)ncnc21
inactive: [1] 95 % of control

CC(=O)OCC1OC(n2cnc3c(Cl)nc(Cl)nc32)CC1OC(C)=O (stereo not drawn)
inactive: [2] 101 % of control | [3] 101 % of control | [4] 101 % of control

COc1ccc([N+](=O)[O-])cc1NC(=S)NC(=O)c1cccc(Br)c1
inactive: [13] 92 % of control | [14] 92 % of control | [15] 97 % of control

N#CC1C(=O)NC(=O)C(C#N)C12CCCCC2 (stereo not drawn)
inactive: [2] 106 % of control | [10] 101 % of control | [3] 106 % of control | [11] 97 % of control

COc1cc([N+](=O)[O-])ccc1NC(=O)Cc1ccccc1
inactive: [10] 111 % of control | [11] 91 % of control | [12] 96 % of control

N#C/C(=C\C=C\c1ccccc1)C(N)=O
inactive: [9] 102 % of control | [10] 96 % of control | [7] 96 % of control | [11] 101 % of control | [8] 100 % of control

Cc1ccnc(NS(=O)(=O)c2ccc(NC(=O)c3ccc(C(=O)Nc4ccc(S(=O)(=O)Nc5nccc(C)n5)cc4)cc3)cc2)n1
inactive: dose: 3.87 mg/kg/injection, schedule: Q01DX015 (ip), vehicle: methylcellulose (MC) 96 % of control | dose: 7.75 mg/kg/injection, schedule: Q01DX015 (ip), vehicle: methylcellulose (MC) 101 % of control | dose: 15.5 mg/kg/injection, schedule: Q01DX015 (ip), vehicle: methylcellulose (MC) 104 % of control | dose: 31.0 mg/kg/injection, schedule: Q01DX015 (ip), vehicle: methylcellulose (MC) 104 % of control | dose: 62.0 mg/kg/injection, schedule: Q01DX015 (ip), vehicle: methylcellulose (MC) 94 % of control | dose: 125.0 mg/kg/injection, schedule: Q01DX015 (ip), vehicle: methylcellulose (MC) 101 % of control | dose: 250.0 mg/kg/injection, schedule: Q01DX015 (ip), vehicle: methylcellulose (MC) 100 % of control | dose: 500.0 mg/kg/injection, schedule: Q01DX015 (ip), vehicle: methylcellulose (MC) 102 % of control

OCC(O)c1ccccn1 (stereo not drawn)
inactive: dose: 100.0 mg/kg/injection, schedule: Q04DX003 (ip), vehicle: saline 107 % of control | dose: 200.0 mg/kg/injection, schedule: Q04DX003 (ip), vehicle: saline 94 % of control | dose: 400.0 mg/kg/injection, schedule: Q04DX003 (ip), vehicle: saline 94 % of control

COC(=O)c1cc(Cl)ccc1OCC(=O)Nc1ccc([N+](=O)[O-])cc1
inactive: [13] 98 % of control | [16] 102 % of control | [14] 93 % of control | [17] 95 % of control | [15] 105 % of control | [18] 103 % of control

O=C(N/N=C/c1ccco1)c1cccnc1
inactive: [13] 97 % of control | [14] 101 % of control

NCc1c(Cl)c(Cl)c(Cl)c(CN)c1Cl
inactive: [19] 89 % of control | [9] 97 % of control | [5] 94 % of control | [10] 102 % of control | [11] 93 % of control

N=C(N)c1ncn(C2CC(O)C(CO)O2)c1N (stereo not drawn)
inactive: [2] 106 % of control | [3] 103 % of control

CNC1CCCc2ccccc2C1O (stereo not drawn)
inactive: [2] 102 % of control

Nc1ccccc1C(O)c1ccccc1 (stereo not drawn)
inactive: [2] 104 % of control | [3] 106 % of control

CCCCCCCCCC(=O)N1CCCC(C)C1 (stereo not drawn)
inactive: [19] 100 % of control | dose: 50.0 mg/kg/injection, schedule: Q01DX009 (ip), vehicle: carboxymethylcellulose (CMC) 94 % of control | dose: 50.0 mg/kg/injection, schedule: Q04DX003 (ip), vehicle: carboxymethylcellulose (CMC) 101 % of control | [5] 98 % of control | dose: 100.0 mg/kg/injection, schedule: Q01DX009 (ip), vehicle: carboxymethylcellulose (CMC) 90 % of control and 91 % of control | dose: 100.0 mg/kg/injection, schedule: Q04DX002 (ip), vehicle: carboxymethylcellulose (CMC) 93 % of control and 95 % of control | dose: 100.0 mg/kg/injection, schedule: Q04DX003 (ip), vehicle: carboxymethylcellulose (CMC) 95 % of control | [6] 94 % of control | dose: 200.0 mg/kg/injection, schedule: Q01DX009 (ip), vehicle: carboxymethylcellulose (CMC) 89 % of control | dose: 200.0 mg/kg/injection, schedule: Q04DX002 (ip), vehicle: carboxymethylcellulose (CMC) 101 % of control and 103 % of control | dose: 200.0 mg/kg/injection, schedule: Q04DX003 (ip), vehicle: carboxymethylcellulose (CMC) 97 % of control | dose: 400.0 mg/kg/injection, schedule: Q04DX002 (ip), vehicle: carboxymethylcellulose (CMC) 92 % of control

N#CCN(CC#N)CC#N
inactive: dose: 3.13 mg/kg/injection, schedule: Q04DX003 (ip), vehicle: saline with Tween-80 102 % of control | dose: 6.25 mg/kg/injection, schedule: Q04DX003 (ip), vehicle: saline with Tween-80 111 % of control

O=CNc1cc(Cl)cc(Cl)c1
inactive: dose: 25.0 mg/kg/injection, schedule: Q01DX009 (ip), vehicle: Klucel (hydroxypropylcellulose) (HPC) 97 % of control | dose: 50.0 mg/kg/injection, schedule: Q01DX009 (ip), vehicle: Klucel (hydroxypropylcellulose) (HPC) 94 % of control | [13] 114 % of control
